Reference: patent publication US20070197509A1, “Compositions and methods for modulating gated ion channels” (PainCeptor Pharma Corporation, priority 2005, published 2007)
One block for each molecule: values may come before it.

Assays:
hASIC3 = target: T1, hASIC3 (Homo sapiens, UniProt Q9UHC3); assay: FlexStation assay on HEK293 cells expressing hASIC3; format: cell-based; parameters: expressed in transfected cells; host or cells: HEK293 cells; conditions: for IC50: FlexStation (Flex), Tables A-F, read-out: Biological Data (IC50 uM) h3 (Flex); for EC50: Table H, cells marked (h3), HEK293, read-out: EC50 (μM) Flex/FLIPR (h3)
T1 sequence (Q9UHC3 1-531): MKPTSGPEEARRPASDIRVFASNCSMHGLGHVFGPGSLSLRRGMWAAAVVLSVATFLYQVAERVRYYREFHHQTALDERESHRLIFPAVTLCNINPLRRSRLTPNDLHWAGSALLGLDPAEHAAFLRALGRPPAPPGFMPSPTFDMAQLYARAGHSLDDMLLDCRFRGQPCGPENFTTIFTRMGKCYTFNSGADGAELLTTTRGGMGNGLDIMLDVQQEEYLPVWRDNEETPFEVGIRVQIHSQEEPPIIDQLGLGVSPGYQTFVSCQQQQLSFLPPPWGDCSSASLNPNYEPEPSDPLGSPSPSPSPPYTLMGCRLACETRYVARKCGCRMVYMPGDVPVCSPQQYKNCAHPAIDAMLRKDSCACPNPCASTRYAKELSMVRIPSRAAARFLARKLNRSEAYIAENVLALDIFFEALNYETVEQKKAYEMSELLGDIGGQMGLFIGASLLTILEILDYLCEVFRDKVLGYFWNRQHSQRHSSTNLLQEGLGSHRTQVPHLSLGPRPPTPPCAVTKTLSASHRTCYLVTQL
Procedure: A vial of FMP dye (Molecular Devices) is resuspended in 10.5 ml of assay buffer (48.3 mM NaCl, 93 mM NMDG, 5 mM KCl, 5 mM CaCl2, 1 mM MgCl2, 10 mM HEPES, pH 7.4). The culture medium is aspirated from the wells, and 100 μl of the FMP loading solution is added to each well. The cells are incubated at 37° C. for 30 min.
After the loading period, the loading solution is left on the cells and the membrane potential-induced fluorescence is measured in FLIPR™ or FlexStation™ (Molecular Devices, USA), or any other suitable equipment known to the skilled in the art.
For cells co-expressing ASIC1a and ASIC3 channels (e.g. HEK293 cells), membrane potential dye (FMP dye) is used and the FlexStation settings are as above.
(§1) The MES-induced peak calcium response (or change in membrane potential), in the presence of test substance, is expressed relative to the MES response alone. Test substances that block the MES-induced calcium response (or change in membrane potential) are re-tested in triplicates. Confirmed hits are picked for further characterization by performing full dose-response curves to determine potency of each hit compound as represented by the IC50 values (i.e., the concentration of the test substance which inhibits 50% of the MES-induced calcium and/or membrane potentiation response; see, for example, FIG. 1).
(§2) The data shown in Table H was acquired using the FlexStation assay described in Example 1 on HEK293 cells expressing hASIC3 (h3) and/or hASIC1a (h1a).

hASIC1a [1] = target: T2, hASIC1a (Homo sapiens, UniProt P78348); assay: Two-electrode voltage clamp in Xenopus laevis oocytes expressing hASIC1a (OpusExpress); format: cell-based; parameters: expressed in transfected cells; host or cells: Xenopus laevis oocytes, nuclear microinjection of cDNA (e.g. in pCDNA3)
T2 sequence (P78348 1-528): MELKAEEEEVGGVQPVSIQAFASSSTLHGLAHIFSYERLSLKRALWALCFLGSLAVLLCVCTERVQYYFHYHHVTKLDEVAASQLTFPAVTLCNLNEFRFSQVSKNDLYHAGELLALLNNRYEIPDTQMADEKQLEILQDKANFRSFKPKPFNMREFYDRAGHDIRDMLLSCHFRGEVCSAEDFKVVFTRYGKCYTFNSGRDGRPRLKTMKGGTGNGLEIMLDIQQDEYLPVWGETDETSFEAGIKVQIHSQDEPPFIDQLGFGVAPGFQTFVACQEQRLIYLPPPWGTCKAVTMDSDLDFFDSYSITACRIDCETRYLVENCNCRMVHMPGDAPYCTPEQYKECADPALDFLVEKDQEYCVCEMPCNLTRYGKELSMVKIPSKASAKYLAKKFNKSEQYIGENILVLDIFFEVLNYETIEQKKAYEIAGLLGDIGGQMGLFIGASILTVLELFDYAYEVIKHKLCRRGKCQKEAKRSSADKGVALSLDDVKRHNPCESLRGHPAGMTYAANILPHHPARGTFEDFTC
Procedure: Two-electrode voltage clamp electrophysiological assays in Xenopus laevis oocytes expressing gated ion channels are performed as follows:
Oocytes are surgically removed from adult Xenopus laevis and treated for 2 h at room temperature with 1 mg/ml type I collagenase (Sigma) in Barth's solution under mild agitation. Selected oocytes at stage IV-V are defolliculated manually before nuclear microinjection of 2.5-5 ng of a suitable expression vector, such as pCDNA3, comprising the nucleotide sequence encoding a gated ion channel subunit protein. In such an experiment, the oocytes express homomultimeric proton-gated ion channels on their surface. In an alternate experiment, one, two, three or more vectors comprising the coding sequences for distinct gated ion channel subunits are co-injected in the oocyte nuclei. In the latter case, oocytes express heteromultimeric proton-gated ion channels. […] Once impaled with the microelectrodes, oocytes are continuously superfused at 10-12 ml/min with a modified Ringer's solution containing 97 mM NaCl, 2 mM KCl, 1.8 mM CaCl2, and 10 mM HEPES brought to pH 7.4 with NaOH (Control Ringer). Test Ringer solution is prepared by replacing HEPES with MES and adjusting the pH to the desired acidic value. Compounds of the present invention are prepared in both the Control and Test Ringer solutions and applied to oocytes at room temperature through a computer-controlled switching valve system. […] Similarly, recordings can also be acquired in an automated multichannel oocytes system as the OpusExpress™ (Molecular Devices, Sunnyvale, Calif., USA).
Recordings were acquired from oocytes expressing homomeric hASIC1a using a two-electrode voltage-clamp configuration procedure as described herein.

hASIC1a [2] = target: T2, hASIC1a; assay: Whole-cell patch clamp of acid-induced currents in cells transfected with hASIC1a; format: cell-based; parameters: expressed in transfected cells; conditions: patch clamp (PC), Tables A-F, h1a printed in some cells only
Procedure: Another example of an in vitro assessment method consists of using mammalian heterologous expression systems, which are known to those skilled in the art, and include a variety of mammalian cell lines such as COS, HEK, e.g., HEK293 and/or CHO, cells. Cell lines are transfected with gated ion channel(s) and used to perform electrophysiology as follows:
All experiments are performed at room temperature (20-25° C.) in voltage clamp using conventional whole cell patch clamp methods (Neher, E., et al. (1978) Pfluegers Arch 375:219-228).
The amplifier used is the EPC-9 (HEKA-electronics, Lambrect, Germany) run by a Macintosh G3 computer via an ITC-16 interface. Experimental conditions are set with the Pulse-software accompanying the amplifier. Data is low pass filtered and sampled directly to hard-disk at a rate of 3 times the cut-off frequency.
Pipettes are pulled from borosilicate glass using a horizontal electrode puller (Zeitz-lnstrumente, Augsburg, Germany). The pipette resistances are 2-3 MOhms in the salt solutions used in these experiments. The pipette electrode is a chloridized silver wire, and the reference is a silver chloride pellet electrode (In Vivo Metric, Healdsburg, USA) fixed to the experimental chamber. The electrodes are zeroed with the open pipette in the bath just prior to sealing.
Coverslips with the cells are transferred to a 15 μl experimental chamber mounted on the stage of an inverted microscope (IMT-2, Olympus) supplied with Nomarski optics. Cells are continuously superfused with extracellular saline at a rate of 2.5 ml/min. After giga-seal formation, the whole cell configuration is attained by suction. The cells are held at a holding voltage of −60 mV and at the start of each experiment the current is continuously measured for 45 s to ensure a stable baseline. Solutions of low pH (<7) are delivered to the chamber through a custom-made gravity-driven flowpipe, the tip of which is placed approximately 50 μm from the cell. Application is triggered when the tubing connected to the flowpipe is compressed by a valve controlled by the Pulse-software. Initially, low pH (in general, pH 6.5) is applied for 5 s every 60 s. The sample interval during application is 550 μs. After stable responses are obtained, the extracellular saline as well as the low-pH solution are switched to solutions containing the compound to be tested. The compound is present until responses of repeatable amplitude are achieved. Current amplitudes are measured at the peak of the responses, and effect of the compounds is calculated as the amplitude at compound equilibrium divided by the amplitude of the current evoked by the pulse just before the compound was included.
The following salt solutions are used: extracellular solution (mM): NaCl (140), KCl (4), CaCl2 (2), MgCl2 (4), HEPES (10, pH 7.4); intracellular solution (mM): KCl (120), KOH (31), MgCl2 (1.785), EGTA (10), HEPES (10, pH 7.2). In general, compounds for testing are dissolved in 50% DMSO at 500 fold the highest concentration used.
CHO cells were transfected with hASIC1a and used to perform full dose-inhibition curves with Compound B, and Compound R. Results are expressed as a fraction of the control peak current obtained in the absence of the test substance.

[3] = tested on: T3, hASIC3 (h3) and/or hASIC1a (h1a); assay: FlexStation/FLIPR assay, channel not marked in the cell; format: cell-based, human; conditions: Table H, cells without channel mark; HEK293; read-out: EC50 (μM) Flex/FLIPR
T3 construct: EC50 (μM) in one experiment; HEK293
Description: as §1, §2

[4] = OpusExpress (OX), Tables A-F, h1a printed in some cells only, read-out: Biological Data (IC50 uM) h1a (OX)
[5] = OpusExpress (OX), Tables A-F, h1a printed in some cells only
[6] = Table H, read-out: IC50 (μM) Opus Express (h1a)

SMILES: O=C(O)c1cc(-c2ccc(Cl)cc2)nc2ccc(Cl)cc12 [Compound 36, 6-chloro-2-(4-chloro-phenyl)-quinoline-4-carboxylic acid]
IC50 (hASIC3): 15 to 25 µM | IC50 (hASIC1a [1]; [4]): > 50 µM

SMILES: COc1ccc(-c2cc(C(=O)O)c3cc(Cl)ccc3n2)c(O)c1 [Compound 37, 6-chloro-2-(2-hydroxy-4-methoxy-phenyl)-acid]
IC50 (hASIC3): 10 to 20 µM

SMILES: COc1ccc(N2CCN(C(=O)c3cc(-c4ccc(OC)c(OC)c4)nc4ccccc34)CC2)cc1 [Compound 41, [2-(3,4-dimethoxy-phenyl)-quinolin-4-yl]-[4-(4-methoxy-phenyl)-piperazin-1-yl]-methanone]
Biological Data (IC50 uM) h1a (PC) (hASIC1a [2]): Not Active (OX, PC) | Biological Data (IC50 uM) h1a (OX) (hASIC1a [1]; [5]): Not Active (OX, PC)

SMILES: COc1ccc(-c2cc(C(=O)N3CCN(Cc4ccc5c(c4)OCO5)CC3)c3cc(Cl)ccc3n2)cc1 [Compound 44, (4-benzo[1,3]dioxol-5-ylmethyl-piperazin-1-yl)-[6-chloro-2-(4-methoxy-phenyl)-quinolin-4-yl]-methanone]
Biological Data (IC50 uM) h1a (PC) (hASIC1a [2]): Not Active (OX, PC) | Biological Data (IC50 uM) h1a (OX) (hASIC1a [1]; [5]): Not Active (OX, PC)

SMILES: Cc1ccc(-c2nc(Nc3ccc(C(=O)O)cc3)c3cc(Cl)ccc3n2)cc1 [Compound 107, 4-(6-chloro-2-p-tolyl-quinazolin-4-ylamino)-benzoic acid]
IC50 (hASIC1a [2]; read-out: Biological Data (IC50 uM) h1a (PC)): > 30 µM | IC50 (hASIC3): 20 to 30 µM

SMILES: Cc1cc(N2CCN(CCc3ccccc3)CC2)c2ccccc2n1 [Compound D, 2-methyl-4-(4-phenethyl-piperazin-1-yl)-quinoline]
EC50 [3]: < 10 µM | IC50 (hASIC1a [1]; [4]): > 50 µM | IC50 (hASIC1a [1]; [6]): > 50 µM

SMILES: COc1ccc(-c2cc(C(=O)N3CCN(C)CC3)c3ccccc3n2)cc1OC [Compound G, [2-(3,4-dimethoxy-phenyl)-quinolin-4-yl]-(4-methyl-piperazin-1-yl)-methanone]
EC50 [3]: > 20 µM

SMILES: CN1CCN(c2nc(-c3ccccc3F)nc3ccccc23)CC1 [Compound L, 2-(2-fluoro-phenyl)-4-(4-methyl-piperazin-1-yl)-quinazoline]
IC50 (hASIC3): 5 to 15 µM | EC50 (hASIC3): > 10 µM

SMILES: Cc1cc(N2CCNCC2)c2ccccc2n1 [Compound M, 2-methyl-4-piperazin-1-yl-quinoline]
IC50 (hASIC3): 5 to 15 µM | EC50 (hASIC3): > 10 µM | Biological Data (IC50 uM) h1a (OX) (hASIC1a [1]; [5]): inactive | IC50 (μM) Opus Express (h1a) (hASIC1a [1]; Table H): Inactive

Other lines, results leading:

EC50 (hASIC3): > 20 µM | IC50 (μM) Opus Express (h1a) (hASIC1a [1]; Table H): Inactive
SMILES: Cc1cc(N2CCN(C(=O)OCc3ccccc3)CC2)c2ccccc2n1 [Compound N, 4-(2-methyl-quinolin-4-yl)-piperazine-1-carboxylic acid benzyl ester]

EC50 [3]: > 20 µM | IC50 (hASIC3): 5 to 15 µM | IC50 (hASIC1a [1]; [4]): 20 to 30 µM | IC50 (hASIC1a [1]; [6]): 23.9 µM
SMILES: Cc1cc(N2CCN(CC3CCCCC3)CC2)c2ccccc2n1 [Compound O, 4-(4-cyclohexylmethyl-piperazin-1-yl)-2-methyl-quinoline]

IC50 (hASIC3): 10 to 20 µM | EC50 (hASIC3): > 10 µM | IC50 (hASIC1a [1]; [6]): > 50 µM
SMILES: Cc1cc(N2CCN(Cc3ccc4c(c3)OCO4)CC2)c2ccccc2n1 [Compound P]

IC50 (hASIC3): 25 to 35 µM | EC50 (hASIC3): > 20 µM
SMILES: FC(F)(F)c1ccc2c(OC3CCN(Cc4ccccc4)CC3)ccnc2c1 [Compound S, 4-(1-benzyl-piperidin-4-yloxy)-7-trifluoromethyl-quinoline]

EC50 (hASIC3): > 20 µM
SMILES: Cc1ccc(-c2nc(Nc3cccc(C(=O)O)c3)c3ccccc3n2)cc1 [Compound T, 3-(2-p-tolyl-quinazolin-4-ylamino)-benzoic acid]
